Test results reported in PMC5321607 (ACS infectious diseases, 2016).

Assays:
[1] = molecular target: anti-polymyxin B mouse IgM monoclonal antibody (clone 45); format: binding; conditions: SPR; for Kd: Biacore T200, 25°C, HBS-EP+, 1:1 kinetic fit or steady-state
A. baumannii FADDI-AB167 = assay: MIC by broth microdilution; format: cell-based; conditions: CaMHB, 18 h, 37°C
E. cloacae FADDI-EC001 = assay: MIC by broth microdilution; format: cell-based; conditions: CaMHB, 18 h, 37°C
[2] = system: K. pneumoniae FADDI-KP012; assay: MIC by broth microdilution; format: cell-based; conditions: CaMHB, 18 h, 37°C
[3] = system: K. pneumoniae FADDI-KP003; assay: MIC by broth microdilution; format: cell-based; conditions: CaMHB, 18 h, 37°C
[4] = system: K. pneumoniae FADDI-KP032; assay: MIC by broth microdilution; format: cell-based; conditions: CaMHB, 18 h, 37°C
E. cloacae FADDI-EC006 = assay: MIC by broth microdilution; format: cell-based; conditions: CaMHB, 18 h, 37°C
[5] = system: P. aeruginosa FADDI-PA060; assay: MIC by broth microdilution; format: cell-based; conditions: CaMHB, 18 h, 37°C
E. cloacae FADDI-EC003 = assay: MIC by broth microdilution; format: cell-based; conditions: CaMHB, 18 h, 37°C
A. baumannii ATCC 19606 = assay: MIC by broth microdilution; format: cell-based; conditions: CaMHB, 18 h, 37°C
A. baumannii FADDI-AB110 = assay: MIC by broth microdilution; format: cell-based; conditions: CaMHB, 18 h, 37°C
A. baumannii ATCC 17978 = assay: MIC by broth microdilution; format: cell-based; conditions: CaMHB, 18 h, 37°C
[6] = system: K. pneumoniae FADDI-KP027; assay: MIC by broth microdilution; format: cell-based; conditions: CaMHB, 18 h, 37°C
P. aeruginosa ATCC 27853 = assay: MIC by broth microdilution; format: cell-based; conditions: CaMHB, 18 h, 37°C
[7] = system: P. aeruginosa FADDI-PA090; assay: MIC by broth microdilution; format: cell-based; conditions: CaMHB, 18 h, 37°C
[8] = system: P. aeruginosa FADDI-PA001; assay: MIC by broth microdilution; format: cell-based; conditions: CaMHB, 18 h, 37°C
[9] = system: P. aeruginosa FADDI-PA070; assay: MIC by broth microdilution; format: cell-based; conditions: CaMHB, 18 h, 37°C
[10] = system: P. aeruginosa FADDI-PA025; assay: MIC by broth microdilution; format: cell-based; conditions: CaMHB, 18 h, 37°C
A. baumannii FADDI-AB156 = assay: MIC by broth microdilution; format: cell-based; conditions: CaMHB, 18 h, 37°C

Substance: Octanoyl-Dab-Thr-Dab-Dab ^*-Dab-D-Leu-Leu-Dab-Dab-Thr ^* [Colistin]
- Kd [1]: 0.56 µM
- reduction in mAb binding affinity ([1]; compared to polymyxin B (FADDI-206/207: polymyxin B and colistin)): 2 fold
- MIC (A. baumannii FADDI-AB167): 8 µg/mL
- MIC (E. cloacae FADDI-EC001): 0.25 µg/mL
- MIC [2]: 32 µg/mL
- MIC [3]: 128 µg/mL
- MIC [4]: 1 µg/mL
- MIC (E. cloacae FADDI-EC006): <0.125 µg/mL
- MIC [5]: >128 µg/mL
- MIC (E. cloacae FADDI-EC003): <0.125 µg/mL
- MIC (A. baumannii ATCC 19606): 1 µg/mL
- MIC (A. baumannii FADDI-AB110): 0.5 µg/mL
- MIC (A. baumannii ATCC 17978): 0.5 µg/mL
- MIC [6]: >128 µg/mL
- MIC (P. aeruginosa ATCC 27853): 1 µg/mL
- MIC [7]: 8 µg/mL
- MIC [8]: 1 µg/mL
- MIC [9]: >128 µg/mL
- MIC [10]: 2 µg/mL
- MIC (A. baumannii FADDI-AB156): 16 µg/mL

Substance: Octanoyl-Dab-Thr-Dab-Dab ^*-Dab-D-Phe-Leu-Dab-Dab-Thr ^* [Polymyxin B]
- Kd [1]: 0.26 µM
- MIC (A. baumannii FADDI-AB167): 16 µg/mL
- MIC (E. cloacae FADDI-EC001): 0.25 µg/mL
- MIC [2]: 16 µg/mL
- MIC [3]: >32 µg/mL
- MIC [4]: <0.125 µg/mL
- MIC (E. cloacae FADDI-EC006): 0.5 µg/mL
- MIC [5]: >32 µg/mL
- MIC (E. cloacae FADDI-EC003): 0.5 µg/mL
- MIC (A. baumannii ATCC 19606): 1 µg/mL
- MIC (A. baumannii FADDI-AB110): 0.5 µg/mL
- MIC (A. baumannii ATCC 17978): 1 µg/mL
- MIC [6]: 128 µg/mL
- MIC (P. aeruginosa ATCC 27853): 1 µg/mL
- MIC [7]: 4 µg/mL
- MIC [8]: 1 µg/mL
- MIC [9]: 32 µg/mL
- MIC [10]: 1 µg/mL
- MIC (A. baumannii FADDI-AB156): 8 µg/mL
